The term IC50 denotes the point on the concentration scale where inhibition reaches its midpoint.

Each structure is given as a SMILES string. Residue numbers refer to the chain shown, from its start. Read-outs that look alike come from different tables or passages of the source.

This is an account of results in PMC5054527, “Mechanism of high affinity inhibition of the human urate transporter URAT1” (Scientific Reports, 2016).

Common to all, as to experiment: URAT1 uric acid transport activity assay
Holding throughout (type): cell-based

The target of assay [1] is T1, r-V31L rURAT1 point mutant (Rattus norvegicus, UniProt Q3ZAV1, V31L).
T1 construct: expressed in transfected cells; host or cells: HEK-293T
T1 sequence (Q3ZAV1 1-553 V31L): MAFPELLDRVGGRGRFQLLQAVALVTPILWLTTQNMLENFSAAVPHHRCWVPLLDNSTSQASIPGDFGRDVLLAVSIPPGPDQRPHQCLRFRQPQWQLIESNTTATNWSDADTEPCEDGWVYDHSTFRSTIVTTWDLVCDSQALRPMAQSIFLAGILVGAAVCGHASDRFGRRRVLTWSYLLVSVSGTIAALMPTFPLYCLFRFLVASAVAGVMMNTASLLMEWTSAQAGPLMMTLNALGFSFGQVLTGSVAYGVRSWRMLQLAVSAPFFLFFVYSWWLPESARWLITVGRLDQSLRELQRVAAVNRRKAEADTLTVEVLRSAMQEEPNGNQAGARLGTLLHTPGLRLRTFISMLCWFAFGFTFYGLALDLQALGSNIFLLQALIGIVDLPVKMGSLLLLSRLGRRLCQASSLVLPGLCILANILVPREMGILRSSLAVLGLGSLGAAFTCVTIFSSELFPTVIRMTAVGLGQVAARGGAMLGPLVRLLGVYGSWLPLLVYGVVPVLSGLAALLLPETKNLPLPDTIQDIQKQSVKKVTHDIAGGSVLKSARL
The method in brief: (§1)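 Readout: 14C-uric acid uptake (100 μM, 10 min) in cells transiently transfected one day earlier with mutant rURAT1. Serially diluted inhibitors were added 5 min before substrate. Triplicate points, four-parameter logistic fit for IC50.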

The target of assay [2] is T2, r-M481I rURAT1 point mutant (Rattus norvegicus, UniProt Q3ZAV1, M481I).
T2 sequence (Q3ZAV1 1-553 M481I): T1 sequence (Q3ZAV1 1-553 V31L) with L31V, M481I
The method in brief:
as §1

The target of assay [3] is T3, r-P27S rURAT1 point mutant (Rattus norvegicus, UniProt Q3ZAV1, P27S).
T3 sequence (Q3ZAV1 1-553 P27S): T1 sequence (Q3ZAV1 1-553 V31L) with P27S, L31V
The essentials: as §1

`CCc1oc2ccccc2c1C(=O)c1cc(Br)c(O)c(Br)c1` [benzbromarone]: the IC50 amounted to 17 ± 3.4 µM in assay [1], 15 ± 1.1 µM in assay [2] and 16 ± 1.7 µM in assay [3].
As for `O=C(O)CSc1nnc(Br)n1-c1ccc(C2CC2)c2ccccc12` [lesinurad, 2-((5-bromo-4-(4-cyclopropylnaphthalen-1-yl)-4H-1,2,4-triazol-3-yl)thio)acetic acid], the 50% inhibitory concentration (IC50) in assay [1] (r-V31L, MES pH 5.5, 100 μM 14C-uric acid, read-out: IC50 (uric acid transport)) was 85 ± 4.5 µM; in assay [2] (r-M481I, MES pH 5.5, 100 μM 14C-uric acid, read-out: IC50 (uric acid transport)), 71 ± 3 µM; in assay [3] (r-P27S, MES pH 5.5, 100 μM 14C-uric acid, read-out: IC50 (uric acid transport)), 77 ± 3.2 µM.
Regarding `O=C1C(CC[S+]([O-])c2ccccc2)C(=O)N(c2ccccc2)N1c1ccccc1` (centres unmarked) [sulfinpyrazone], the IC50 in assay [1] (r-V31L, HEPES pH 7.3, 100 μM 14C-uric acid, read-out: IC50 (uric acid transport)) was found to be 266 ± 70 µM; in assay [2] (r-M481I, HEPES pH 7.3, 100 μM 14C-uric acid, read-out: IC50 (uric acid transport)), 395 ± 68 µM; in assay [3] (r-P27S, HEPES pH 7.3, 100 μM 14C-uric acid, read-out: IC50 (uric acid transport)), 321 ± 77 µM. The “fold increased affinity of r-M481I compared to rURAT1” value in assay [2] (from IC50 values) was 1.7 fold. Further, the “fold higher affinity of r-P27S compared to rURAT1” value in assay [3] (from IC50 values) is recorded as 2.1 fold.
